Source: patent US11116781B2, “Composition, containing Loganin or a derivative thereof as an active ingredient for preventing, remedying, or treating female climacteric syndrome” (NINE B CO., LTD., priority 2016, dated 2021)

Assays:
Format in all cases: in vivo
[1] = system: ovariectomized ddY female mouse (OVX mouse); experiment: Blood estradiol, progesterone and cortisol by ELISA in female climacteric (OVX) mouse model; details: 10 mg/kg/day oral, 12 weeks; for decrease level of estradiol (17β-estradiol, E2) in the blood: vs. OVX negative control (FIG. 6a); for decrease level of progesterone in the blood: vs. OVX negative control (FIG. 6b)
Procedure: (§1) A 10-week-old ovariectomized ddY female mouse (OVX mouse) was used as a climacteric animal model to evaluate the in vivo efficacy of Loganin (ovariectomy after 8 weeks and 2 weeks of additional feeding for recovering conditions). Sham mouse group cut the abdomen open without ovariectomy (normal control group) was used as control group, and OVX mouse group in which physiological saline alone was administered to ovariectomized mice (negative control group) and SrCl2 mouse group in which a single compound, strontium chloride (SrCl2), was orally injected at a dose of 10 mg/kg/day (comparison group of […] compound administration) were used. 10-week-old Sham-operated and ovariectomized ddY female mice were purchased from Central Laboratory Animals Co. and transferred to a clean animal breeding area after a 1-week purifying period in the quarantine room of Experimental Animal Center in Ajou University. The weight of each mouse was measured and group separation was performed so that there was no statistically significant weight difference between the experimental groups. For the experiment, a test solution of Loganin was prepared as an aqueous solution and in order to bring in the laboratory animal center, a sterilization operation was carried out by irradiating with a gamma ray by a radiation irradiation professional company, Soyagreentec Co., Ltd. In the test group, Loganin was orally injected at a dose of 10 mg/kg/day for 12 weeks and blood estrogen level, estrogen receptor alpha expression level in uterus tissue, uterine size, body weight, and fat cell size of liver and abdominal adipose tissue were measured and analyzed.
An ordinary female climacteric symptom results in a significant reduction in female hormones, i.e. estrogen and progesterone. The amount of estradiol (17β-estradiol, E2) and progesterone which are estrogen in the blood was measured by ELISA after 12 weeks of administration of Loganin to female climacteric mouse model.

[2] = system: ovariectomized ddY female mouse (OVX mouse); experiment: Body weight and blood insulin and leptin (ELISA) in climacteric mouse model; details: 10 mg/kg/day oral, 12 weeks; for increase in insulin in the blood / increase in leptin in the blood: ELISA; for increase in insulin in the blood: vs. OVX negative control (FIG. 9b); for increase in leptin in the blood: vs. OVX negative control (FIG. 9c); for weight gain (body weight): vs. OVX negative control (FIG. 9a)
Procedure: as §1
An ordinary female climacteric symptom results in weight gain due to estrogen decrease. The changes in body weight of mice and the presence of insulin and leptin, the metabolic hormone proteins, were measured by ELISA after 12 weeks of administration of Loganin to female climacteric mouse model.

[3] = system: estrogen receptor alpha; experiment: Estrogen receptor alpha mRNA and protein expression in uterus of climacteric mouse model; details: OVX mouse, 10 mg/kg/day oral, 12 weeks; for decrease of the estrogen receptor alpha protein in uterus section: immunohistochemistry, vs. OVX negative control (FIG. 7b); for decrease of mRNA expression of the estrogen receptor alpha in uterus: vs. OVX negative control (FIG. 7a)
Procedure: as §1
An ordinary female climacteric symptom results in a remarkable reduction in estrogen receptors in uterine tissue cells due to estrogen decrease. The estrogen receptor is activated by estradiol (17β-estradiol, E2) and has two classes of estrogen receptor alpha and estrogen receptor beta. In the uterus, the estrogen receptor alpha plays a more important role than the estrogen receptor beta, and during climacterium, a marked reduction in the estrogen receptor alpha causes contraction and degeneration of the uterus. The mRNA expression level of the estrogen receptor alpha gene and the estrogen receptor alpha protein expression level by immunohistochemistry of section of the uterus were analyzed after 12 weeks of administration of Loganin to climacteric mouse model followed by extirpating uterus.

[4] = system: ovariectomized ddY female mouse (OVX mouse); experiment: Uterine contraction and degeneration (shape, size, thickness, weight) in climacteric mouse model; details: 10 mg/kg/day oral, 12 weeks; for outward shape and size of the uterus: vs. OVX negative control (FIG. 8a); for thickness of the H & E-stained uterine section: vs. OVX negative control (FIG. 8b); for weight of the uterus: vs. OVX negative control (FIG. 8c)
Procedure: as §1
An ordinary female climacteric symptom results in uterine contraction and degeneration due to estrogen decrease. The shape, size, thickness and weight of the uterus were observed after 12 weeks of administration of Loganin to female climacteric mouse model followed by extirpating uterus. When compared to normal Sham mouse without ovariectomy, the uterus was small (FIG. 8a), the thickness of the section was thin (FIG. 8b) and the uterine weight was light (FIG. 8c) in ovariectomized OVX mouse.

[5] = system: ovariectomized ddY female mouse (OVX mouse); experiment: Fat accumulation in liver and fat cell size in abdominal adipose tissue (H & E staining) in climacteric mouse model; details: 10 mg/kg/day oral, 12 weeks; for fat accumulation in the liver: H & E staining (FIG. 10a); for increase in fat cell size in the abdominal adipose tissue: H & E staining (FIG. 10b)
Procedure: as §1
In general, when estrogen is reduced in female climacterium, new estrogen is produced from adipocytes to offset the estrogen deficiency. In this process, more fat cells are produced and can cause abdominal obesity. In other words, fat accumulation in the liver and fat cell size increase in abdominal adipose tissue are caused by the increase of insulin and leptin, which are hormone proteins related to lipid metabolism. Liver and abdominal adipose tissues of mice were extirpated and H & E stained after 12 weeks of administration of Loganin to female climacteric mouse model.

| Compound | decrease level of estradiol (17β-estradiol, E2) in the blood [1] | decrease level of progesterone in the blood [1] | increase in insulin in the blood [2] | increase in leptin in the blood [2] | weight gain (body weight) [2] | decrease of the estrogen receptor alpha protein in uterus section [3] | decrease of mRNA expression of the estrogen receptor alpha in uterus [3] | outward shape and size of the uterus [4] | thickness of the H & E-stained uterine section [4] | weight of the uterus [4] | fat accumulation in the liver [5] | increase in fat cell size in the abdominal adipose tissue [5] |
| --- | --- | --- | --- | --- | --- | --- | --- | --- | --- | --- | --- | --- |
| COC(=O)C1=CO[C@@H](O[C@@H]2O[C@H](CO)[C@@H](O)[C@H](O)[C@H]2O)[C@@H]2[C@@H](C)[C@@H](O)C[C@H]12 [Loganin] | significantly inhibited | significantly inhibited | significantly inhibited | significantly inhibited | significantly inhibited | significantly inhibited | significantly inhibited | significantly inhibited | significantly inhibited | significantly inhibited | remarkably inhibited | remarkably inhibited |
| [Cl-].[Cl-].[Sr+2] [SrCl2, strontium chloride] | no difference with OVX mouse | no difference with OVX mouse | no difference with OVX mouse | no difference with OVX mouse | no difference with OVX mouse | no difference with OVX mouse | no difference with OVX mouse | no difference with OVX mouse | no difference with OVX mouse | no difference with OVX mouse | no difference with OVX mouse | no difference with OVX mouse |
